C[N+](C)(C)CC(=O)[O-]
solubility (mole fraction) (in DMSO, 288.51 K): 0.001
solubility (mole fraction) (in DMSO, 292.73 K): 0.00116
solubility (mole fraction) (in DMSO, 298.34 K): 0.00139
solubility (mole fraction) (in DMSO, 305.16 K): 0.00172
solubility (mole fraction) (in DMSO, 308.53 K): 0.0019
solubility (mole fraction) (in DMSO, 313.2 K): 0.00219
solubility (mole fraction) (in DMSO, 318.16 K): 0.00253
solubility (mole fraction) (in DMSO, 322.88 K): 0.00291
solubility (mole fraction) (in DMSO, 327.87 K): 0.00334
solubility (mole fraction) (in DMSO, 333.58 K): 0.00391
solubility (mole fraction) (in acetic acid, 292.83 K): 0.23
solubility (mole fraction) (in acetic acid, 297.84 K): 0.239
solubility (mole fraction) (in acetic acid, 302.28 K): 0.252
solubility (mole fraction) (in acetic acid, 308.31 K): 0.268
solubility (mole fraction) (in acetic acid, 312.79 K): 0.279
solubility (mole fraction) (in acetic acid, 317.76 K): 0.298
solubility (mole fraction) (in acetic acid, 322.58 K): 0.306
solubility (mole fraction) (in acetic acid, 328.87 K): 0.327
solubility (mole fraction) (in acetic acid, 333.12 K): 0.344
solubility (mole fraction) (in ethylene glycol, 283.42 K): 0.102
solubility (mole fraction) (in ethylene glycol, 288.53 K): 0.109
solubility (mole fraction) (in ethylene glycol, 292.46 K): 0.117
solubility (mole fraction) (in ethylene glycol, 298.03 K): 0.125
solubility (mole fraction) (in ethylene glycol, 303.87 K): 0.137
solubility (mole fraction) (in ethylene glycol, 308.52 K): 0.145
solubility (mole fraction) (in ethylene glycol, 314.59 K): 0.161
solubility (mole fraction) (in ethylene glycol, 318.19 K): 0.167
solubility (mole fraction) (in ethylene glycol, 323.98 K): 0.183
solubility (mole fraction) (in ethylene glycol, 328.33 K): 0.192
solubility (mole fraction) (in isopentanol, 286.47 K): 0.000166
solubility (mole fraction) (in isopentanol, 289.13 K): 0.000185
solubility (mole fraction) (in isopentanol, 293.93 K): 0.000225
solubility (mole fraction) (in isopentanol, 298.25 K): 0.000269
solubility (mole fraction) (in isopentanol, 302.72 K): 0.000316
solubility (mole fraction) (in isopentanol, 307.37 K): 0.000378
solubility (mole fraction) (in isopentanol, 314.06 K): 0.000477
solubility (mole fraction) (in isopentanol, 318.23 K): 0.000556
solubility (mole fraction) (in isopentanol, 322.6 K): 0.000646
solubility (mole fraction) (in n-pentanol, 285.88 K): 0.000216
solubility (mole fraction) (in n-pentanol, 289.5 K): 0.000249
solubility (mole fraction) (in n-pentanol, 294.44 K): 0.000301
solubility (mole fraction) (in n-pentanol, 299.59 K): 0.000368
solubility (mole fraction) (in n-pentanol, 304.38 K): 0.000436
solubility (mole fraction) (in n-pentanol, 309.45 K): 0.000523
solubility (mole fraction) (in n-pentanol, 313.8 K): 0.000609
solubility (mole fraction) (in n-pentanol, 318.18 K): 0.000705
solubility (mole fraction) (in n-pentanol, 323.02 K): 0.000822
